From US5494927A, “3,5-di-tertiarybutyl-4-hydroxyphenylmethylene derivatives of 2-substituted thiazolidinones, oxazolidinones, and imidazolidinones as antiinflammatory agents” (priority 1994, dated 1996)
pIC50: −log10 of the molar value. Where “and” joins values, the source holds several entries; their conditions need not be identical. Equal entries are not always repeated. Structures can show the parent of a compound that is named as a salt.

Experiments:
5-lipoxygenase = biological target: T1, 5-lipoxygenase (Rattus norvegicus, UniProt P12527); test: ARBL whole cell 5-lipoxygenase assay (LTB4 formation in RBL-1 cells); type: cell-based; conditions: for pIC50: A23187 stimulated, read-out: ARBL IC50 for LTB4 inhibition; for inhibition at 10 µM: read-out: ARBL % inhibition of LT
T1 construct: host or cells: RBL-1 rat basophilic leukemia cells
T1 sequence (P12527 1-673): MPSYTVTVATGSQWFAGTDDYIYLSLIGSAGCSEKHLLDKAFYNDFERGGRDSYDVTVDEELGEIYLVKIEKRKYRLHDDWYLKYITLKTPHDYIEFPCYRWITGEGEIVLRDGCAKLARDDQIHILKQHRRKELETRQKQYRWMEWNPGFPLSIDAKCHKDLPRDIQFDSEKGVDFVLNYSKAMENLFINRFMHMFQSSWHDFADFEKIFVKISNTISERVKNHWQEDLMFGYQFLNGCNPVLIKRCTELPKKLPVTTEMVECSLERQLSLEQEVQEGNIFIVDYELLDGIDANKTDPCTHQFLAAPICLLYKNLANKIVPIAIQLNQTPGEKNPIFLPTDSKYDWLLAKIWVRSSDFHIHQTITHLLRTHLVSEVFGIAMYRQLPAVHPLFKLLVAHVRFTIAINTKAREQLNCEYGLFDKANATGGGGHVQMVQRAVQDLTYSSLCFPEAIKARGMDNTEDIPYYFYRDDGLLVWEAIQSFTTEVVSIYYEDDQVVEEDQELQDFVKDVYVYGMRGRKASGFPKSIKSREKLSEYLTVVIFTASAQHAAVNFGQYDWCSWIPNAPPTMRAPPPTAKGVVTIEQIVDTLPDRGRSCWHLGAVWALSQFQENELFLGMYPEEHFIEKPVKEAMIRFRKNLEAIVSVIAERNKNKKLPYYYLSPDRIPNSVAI
Experimental: (§1) ARBL/ARBC WHOLE CELL 5-LIPOXYGENASE AND CYCLOOXYGENASE ASSAYS
(§2) The rat basophilic leukemia cell line (RBL-1) was obtained from the American Type Culture Collection (Rockville, Md.).
(§3) Radioimmunoassay (RIA) kits of LTB4 and PGF2.sbsb.α were obtained from Amersham (Arlington Heights, Ill.) and Seragen (Boston, Me.), respectively.
(§4) All tissue culture media were obtained from GIBCO (Grand Island, N.Y.).
(§5) RBL-1 cells are grown in suspension culture in Eagle's minimum essential medium supplemented with 12% fetal bovine serum at 37° C. in an incubator supplied with air-5% carbon dioxide. Cells are harvested by centrifugation. They are washed with cold phosphate buffered saline pH 7.4 (PBS; NaCl, 7.1 g; Na2 HPO4, 1.15 g; KH2 PO4, 0.2 g; and KCl, 0.2 g/L). Cells are finally suspended in PBS containing 1.0 mM calcium at a density of 2×10^6 cells/mL. Cells are incubated with and without test agent (in DMSO) (1% DMSO is without effect on arachidonic acid metabolism) for 10 minutes at room temperature. Calcium ionophore A23187 (5 μM) is added and cells are incubated for 7 minutes at 37° C. The reaction is stopped by chilling the tubes on ice for 10 minutes. Cells are separated by centrifugation and the supernatant is stored at -20°. Aliquots (100 μL) are analyzed for LTB4 and PGF2.sbsb.α using radioimmunoassay kits as provided by the supplier.
(§6) Table I contains biochemical data obtained from this whole cell assay as IC50 s which are calculated as the amount of test compound causing 50% inhibition or % of inhibition at the named micromoles (μM) of LTB4 or PGF2.sbsb.α formation.

[1] = test system: Mycobacterium-induced rat footpad edema; test: Mycobacterium-induced rat footpad edema assay (MFE); type: in vivo; conditions: for ED40: Rattus norvegicus, swelling 72 hours after Mycobacterium injection, read-out: MFE ID40 (dose at which swelling is inhibited by 40%); for MFE % inhibition of swelling: 72 hours
Experimental: MYCOBACTERIUM-INDUCED RAT FOOTPAD EDEMA ASSAY (MFE): PROTOCOL
Mycobacterium butyricum (5 mg/mL) is suspended in paraffin oil by sonication for 10 minutes in an ice bath. Footpad edema is induced on Day 0 by injecting 0.1 mL of the Mycobacterium mixture into the left hindpaw of lightly anesthetized rats. Swelling in the injected hindpaw is determined by mercury plethysmography 72 hours after injection. Groups of rats are treated with test compounds (suspended in 0.5% hydroxypropyl methylcellulose with 0.2% Tween-80) or vehicle 1 hour before Mycobacterium injection and on Days 1 and 2. Inhibition of swelling is determined by comparing the change in hindpaw volume in compound- and vehicle-treated rats. An ID40 (the dose at which swelling is inhibited by 40%) is calculated by probit analysis or shown as the % inhibition at the dose expressed as μM, i.e., % at μM.

cyclooxygenase = test: ARBC whole cell cyclooxygenase assay (PGF2α formation in RBL-1 cells); type: cell-based, rat; conditions: for pIC50: A23187 stimulated; for ARBC % inhibition of PGF2α: @ 10 μM
Experimental: as §1, §2, §3, §4, §5, §6

[2] = test system: carrageenan-induced rat foot paw edema; test: Carrageenan-induced rat foot paw edema-2 (CFE-2) assay; type: in vivo; conditions: dosed 1 hour before carrageenan, edema at 5 hours
Experimental: Carrageenan-Induced Rat Foot Paw Edema-2
CARRAGEENAN-INDUCED RAT FOOT PAW EDEMA-2 (CFE-2) ASSAY: PROTOCOL
Carageenan solution (1% w/v) is prepared by dissolving 100 mg carrageenan (Marine Colloidal Div., Springfield, N.J.) in 10 mL of sterile saline (0.9%) solution (Travenol). The solution is vortexed for 30 to 45 minutes. Animals are dosed with compound 1 hour before carrageenan challenge. Foot paw edema is induced by injecting 0.10 mL of the 1% carrageenan subcutaneously into the plantar portion of the right hind paw of each rat under light anesthesia. Initial foot paw volume is measured immediately following carrageenan challenge using mercury plethysmography (Buxco Electronics). Edema is measured 5 hours after carrageenan. The difference between the 5-hour and the initial paw volume is expressed as delta edema. The delta edema for each test group of animals is used to calculate the percent inhibition of edema achieved by the compound at the test dose compared with the vehicle control group. The data in Table I (the dose at which swelling is inhibited by the noted percent) is calculated by probit analysis for the dose at which percent inhibition occurs.

gastric ulcers in rats = test: Gastric ulcerogenicity (UD); type: in vivo, Wistar rats; design: key: N is not active at the dose tested; conditions: @ 200; oral, fasted rats, 6 hours
Experimental: GASTRIC ULCEROGENICITY (UD): PROTOCOL
Male outbred Wistar rats (100-250 g) are fasted for 24 hours. After fasting, test compounds are administered orally (in 2 mL/kg of 0.5% hydroxypropyl methylcellulose) and the rats are denied access to food and water for 6 more hours. The rats are then sacrificed with CO2 so that the stomachs can be removed, opened along the greater curvature, and evaluated for the presence of gastric ulcers. Results are expressed as the percent of rats with gastric ulcers at a given dose or as the UD50 (the dose which causes ulcers in 50% of the rats).

Compound	pIC50 (5-lipoxygenase)	pIC50 (cyclooxygenase)	CFE % inhibition of edema ([2]; @ 10) [%]	ARBC % inhibition of PGF2α (cyclooxygenase) [%]	inhibition at 10 µM (5-lipoxygenase) [%]	CFE % inhibition of edema ([2]; @ 30) [%]	further results
CON(C)C1=NC(=O)/C(=C/c2cc(C(C)(C)C)c(O)c(C(C)(C)C)c2)S1	5.77	6.48	41	–	–	–	ED40 [1]: 13.2 mg/kg
5-[[3,5-Bis(1,1-dimethylethyl)-4-hydroxylphenyl]methylene]-2-[[2-(dimethylamino)ethyl]amino-4(5H-thiazolone, (Z)- [Example 10]	–	–	–	87	–	–	–
CC(C)(C)c1cc(/C=C2\SC(N)=NC2=O)cc(C(C)(C)C)c1O [Example 1B, 5-[[3,5-Bis(1,1-dimethylethyl)-4-hydroxyphenyl]methylene]-2-imino-4-thiazolidinone, (Z)-, methanesulfonate (1:1) salt]	–	–	–	80	100	–	ED40 [1]: < 10 mg/kg; Gastric Ulcerogenicity UD50 (gastric ulcers in rats): N
CC(C)(C)c1cc(/C=C2\SC(=NO)NC2=O)cc(C(C)(C)C)c1O [Example 4, 5-[[3,5-bis(1,1-dimethylethyl)-4-hydroxyphenyl]methylene]-2,4-thiazolidinedione, 2-oxime (Z)-]	–	–	32	81	100	17	–
CSC1=NC(=O)/C(=C/c2cc(C(C)(C)C)c(O)c(C(C)(C)C)c2)S1 [Example 5, 5-[[3,5-Bis(1,1-dimethylethyl)-4-hydroxyphenyl]methylene]-2,(methylthio)-4(5H)-thiazolone, (Z)-]	6.30 and 6.10	> 6.22	36	–	–	47	MFE % inhibition of swelling ([1]; @ 2): 27%; MFE % inhibition of swelling ([1]; @ 50): 23%
CC(C)(C)c1cc(/C=C2\SC(=NNC(N)=S)NC2=O)cc(C(C)(C)C)c1O [Example 7, 2-[5-[[3,5-Bis(1,1-dimethylethyl)-4-hydroxyphenyl]methylene]-4-oxo-2-thiazolidinylidene]hydrazine-carbothiamide, (Z)-]	6.41	5.34	–	–	–	–	–
CC(C)(C)c1cc(C=C2SC(NC#N)=NC2=O)cc(C(C)(C)C)c1O [Example 9, [5-[[3,5-Bis(1,1-dimethylethyl)-4,hydroxyphenyl]methylene]-4,5-dihydro-4-oxo-2-thiazolyl]cyanamide]	–	6.80	–	–	–	49	MFE % inhibition of swelling ([1]; @ 3): 32%
CC(NC1=NC(=O)C(=Cc2cc(C(C)(C)C)c(O)c(C(C)(C)C)c2)S1)C(=O)O (centres unmarked) [Example 12]	–	–	–	55	100	–	–
